Here are results for 12 compounds from ChEMBL document CHEMBL3611982, “Lowering the pKa of a bisimidazoline lead with halogen atoms results in improved activity and selectivity against Trypanosoma brucei in vitro” (Eur J Med Chem, 2015).

Data set [1] deals with Trypanosoma brucei brucei. The data set can be described thus: Resistant factor, ratio of EC50 for diminazene/pentamidine/melaminophenyl arsenicals-resistant Trypanosoma brucei brucei B48 to EC50 for wild type bloodstream form of Trypanosoma brucei brucei s427 trypomastigotes. Type of data set: functional.
Data set [2] deals with Trypanosoma brucei brucei. The data set can be described thus: Trypanocidal activity against wild type bloodstream form of Trypanosoma brucei brucei s427 trypomastigotes after 70 hrs by Alamar Blue assay. Type of data set: functional, organism-based. Conditions: s427, 70 h. Background: The colour change of resazurin is a common sign of viable cells or microbes.
Data set [3] relates to Trypanosoma brucei brucei. The data set can be described thus: Trypanocidal activity against diminazene/pentamidine/melaminophenyl arsenicals-resistant bloodstream form of Trypanosoma brucei brucei B48 trypomastigotes after 70 hrs by Alamar Blue assay. Conditions: B48, 70 h. Type of data set: functional, organism-based.
Data set [4] in a line: Selectivity index, ratio of CC50 for HEK293T cells to EC50 for wild type bloodstream form of Trypanosoma brucei s427 trypomastigotes. To be noted: human, read-out: Ratio CC50/EC50. Type of data set: toxicity, cell-based, HEK-293T.
Data set [5] is described as follows: Cytotoxicity against HEK293T cells after 30 hrs by Alamar Blue assay. Type of data set: cell-based, HEK-293T. Conditions: human.
Data set [6] has as its system Trypanosoma brucei brucei. The data set can be described thus: Trypanocidal activity against Trypanosoma brucei brucei s427 measured within 6 hrs by propidium iodide staining-based fluorimetric analysis. Type of data set: functional, organism-based.
Data set [7] concerns Trypanosoma brucei brucei. The data set can be described thus: Trypanocidal activity against Trypanosoma brucei brucei s427 at >5 fold EC50 measured within 6 hrs by propidium iodide staining-based fluorimetric analysis. Format: functional, organism-based.
Data set [8] has as its system Trypanosoma brucei brucei. The data set can be described thus: Trypanocidal activity against Trypanosoma brucei brucei s427 at 2.5 uM measured over 2 hrs by propidium iodide staining-based fluorimetric analysis. Type of data set: functional, organism-based.
The subject of data set [9] is Trypanosoma brucei brucei. The data set can be described thus: Trypanocidal activity against Trypanosoma brucei brucei s427 at 5 uM measured over 1 hr by propidium iodide staining-based fluorimetric analysis. Format: functional, organism-based.

The source made the active and inactive calls. The calls are words filed in the database; no cut-off is given here.

One may read the EC50 as the concentration giving half of the maximal effect. Read a low EC50 as a more potent agent. For `N=C(N)c1ccc(/N=N/Nc2ccc(C(=N)N)cc2)cc1` [DIMINAZENE], the “Ratio EC50” value in data set [1] stood at 42. Moreover, the EC50 in data set [2] is 12 nM; in [3] it was 780 nM.
By CC50 is commonly meant the concentration giving 50% cytotoxicity. On to `O=C(Nc1ccc(N=C2NCCN2)c(F)c1)c1ccc(N=C2NCCN2)cc1`, for which the “Ratio EC50” value in [1] came to 1.4. The EC50 amounted to 580 nM in data set [2] and 790 nM in data set [3]. Besides, the selectivity ratio in data set [4] was > 340. The CC50 at 30 h in data set [5] was > 200000 nM.
For `O=C(Nc1ccc(N=C2NCCN2)cc1)c1ccc(N=C2NCCN2)c(Cl)c1`, the “Ratio EC50” value in data set [1] was determined as 0.9. In addition, the EC50 in data set [2] came out at 970 nM; in [3] it was 830 nM. The selectivity ratio in data set [4] was > 200. For the same compound, the CC50 at 30 h in data set [5] was > 200000 nM.
Regarding `O=C(Nc1ccc(N=C2NCCN2)cc1)c1ccc(N=C2NCCN2)c(F)c1`, in data set [1], the “Ratio EC50” value is 1.3. The EC50 was found to be 530 nM in data set [2] and 690 nM in data set [3]. In addition, the selectivity ratio in [4] was > 370. Besides, the CC50 at 30 h in [5] was > 200000 nM.
For the compound `N=C(N)c1ccc(OCCCCCOc2ccc(C(=N)N)cc2)cc1` [PENTAMIDINE], in data set [1], the “Ratio EC50” value is on record as 3349. Also, the EC50 amounted to 0.11 nM in data set [2] and 550 nM in [3].
For the compound `O=C(Nc1ccc(NC2=NCCN2)cc1)c1ccc(NC2=NCCN2)cc1`, in [1], the “Ratio EC50” value is 1.1. The EC50 in data set [2] was determined as 830 nM; in data set [3] it was 870 nM. The selectivity ratio in [4] was > 240. Besides, the Activity result in [6] is “Dose-dependent effect”. Further, the outcome in [7] was Active. Moreover, the CC50 at 30 h in data set [5] is > 200000 nM.
With `O=C(Nc1ccc(N=C2NCCN2)cc1F)c1ccc(N=C2NCCN2)cc1`, in data set [1], the “Ratio EC50” value is listed as 1.4. Further, the results for the EC50 in [2] and in data set [3] were 1580 nM and 2160 nM, respectively. In addition, in data set [4], the selectivity ratio is > 120. Further, the CC50 at 30 h in [5] is > 200000 nM.
In the case of `O=C(Nc1ccc(N=C2NCCN2)cc1)c1ccc(N=C2NCCN2)cc1F`, the “Ratio EC50” value in [1] is listed as 1.4. Moreover, the values for the EC50 in data set [2] and in [3] were 470 nM and 650 nM, respectively. Also, in [4], the selectivity ratio was > 420. For the same compound, the outcome in data set [8] and in data set [9] was Active. The CC50 at 30 h in data set [5] was > 200000 nM.
For `O=C(Nc1ccc(N=C2NCCN2)cc1Cl)c1ccc(N=C2NCCN2)cc1`, in data set [1], the “Ratio EC50” value was determined as 1. Further, the EC50 in data set [2] worked out at 4220 nM; in data set [3], 4350 nM. Besides, in [4], the selectivity ratio was > 45. In data set [5], the CC50 at 30 h was > 200000 nM.
For `O=C(Nc1ccc(N=C2NCCN2)c(Cl)c1)c1ccc(N=C2NCCN2)cc1`, the “Ratio EC50” value in data set [1] amounted to 1.7. The EC50 in data set [2] came out at 220 nM; in data set [3], 360 nM. Further, the selectivity ratio in [4] is > 900. In [5], the CC50 at 30 h is > 200000 nM. In data set [9], the outcome was Active.
Turning to `O=C(Nc1ccc(N=C2NCCN2)cc1)c1ccc(N=C2NCCN2)cc1Cl`, the “Ratio EC50” value in data set [1] worked out at 1.8. The values for the EC50 in data set [2] and in [3] were 1320 nM and 2440 nM, respectively. Besides, in [4], the selectivity ratio is > 150. In data set [5], the CC50 at 30 h is > 200000 nM.
Regarding `O=C(Nc1ccc(N=C2NCCN2)cn1)c1ccc(N=C2NCCN2)cc1`, the “Ratio EC50” value in [1] is given as 3.1. Moreover, the EC50 is 1040 nM in data set [2] and 3230 nM in data set [3]. Besides, the selectivity ratio in [4] is > 190. For the same compound, the CC50 at 30 h in data set [5] is > 200000 nM.
